Test results reported in patent US20190192559A1, “COMBINATION OF PROTEASOME INHIBITORS AND ANTI-CD30 ANTIBODIES” (Millennium Pharmaceuticals, Inc., priority 2016, published 2019).

How the values were obtained:
Type in all cases: in vivo
[1] = system: SR-786 tumor cells (CD30+ human large T cell lymphoma cell line); experiment: SR-786 subcutaneous xenograft tumor efficacy model in CB17 SCID mice; details: for Average tumor volume day 21: in mm³ (unit assumed)
Description: (§1) SR-786 (6.0×10^6) tumor cells in RPMI-1640 media were aseptically injected into the subcutaneous space in the right dorsal flank of CB17 SCID female mice (Charles River Lab) using a 26 G ⅝ needle. SR-786 is a CD30+ human large T cell lymphoma cell line and was obtained from DSMZ (Braunschweig, Germany).
(§2) Brentuximab vedotin (SGN-35), one vial (Seattle Genetics, 50 mg) was reconstituted in 50 ml 0.9% saline to give a stock solution of 1 mg/ml. The stock solution was then diluted again in 0.9% saline to reach the desired concentration and administered by intraperitoneal injection (IP) on q4D schedule for 21 days (SR-786), 14 days (Karpas-299) or 24 days (SUDHL-2) at 0.2 mg/kg, 0.4 mg/kg and 0.8 mg/kg.
(§3) The compound of formula (IIIa) was formulated in either 5% hydroxypropyl-beta-cyclodextrin (for SR-786 and Karpas-299 studies) or in 20% hydroxypropyl-beta-cyclodextrin for SUDHL-2 study. The amounts listed below in Tables 1a-3b are calculated based on the compound of formula (IV). The drug was administered by IV injection (1 cc syringe, 20-22 gauge) on BIW schedule at either 2 mg/kg or 8 mg/kg for 21 days (SR-786), 14 days (Karpas-299), or 24 days (SUDHL-2).
(§4) Tumors were measured twice weekly using a vernier caliper. Tumor volumes were calculated using standard procedures (0.5×(length×width^2)). When the tumors reached a volume of approximately 200 mm^3 for SR-786, 150 mm^3 for Karpas-299 and SUDHL-2, mice were randomized into 7-8 groups as described in the tables below, and injected with vehicle, compound of formula (IV) or SGN-35 or the combination of compound of formula (IV) with SGN-35, at various doses as described below in Tables 1a, 2a and 3a. Tumor size and body weight were measured approximately twice a week for the duration of the study. Mice were euthanized when their tumor volume reached 10% of their body weight, or when the average tumor volume of a treatment or control group reached approximately 2000 mm^3. Tumor growth continued to be monitored after the dosing period in this study. Tumor volume on study day 21 for all groups is shown in table 1a for SR-786 study; on study day 14 for all groups for Karpas-299 study in table 2a and on study day 24 for all groups for SUDHL-2 study in table 3a. Average tumor volume is reported as a function of time for all groups in FIG. 1 (SR-786), FIG. 2 (Karpas-299) and FIG. 3 (SUDHL-2). Tumor volumes were reported till the end of the study to capture re-growth.
(§5) The synergy analysis is based on the tumor volume data from day 0 to 21 for SR-786, days 0 to 14 for Karpas-299 and days 0 to 24 for SUDHL-2 and presented in table 1b, 2b and 3b. Volume measurements below 25 cubic mm are excluded from the analysis because very low volumes cannot be measured accurately. The remaining measurements are log transformed and fit to a simple linear model with the measurement day as a covariate. The data are fit separately for the different animals to yield an estimated tumor growth rate for each animal in each treatment group. Based on the growth rates, the synergy score for the combination of agents A and B is defined as
(§6) 100*(mean(μAB)−mean(μA)−mean(μB)+mean(μctl))/mean(μctl):
(§7) where μAB, μA, μB, and μctl are the mean tumor growth rates for animals in the combination group, the A group, the B group, and the control group, respectively. The standard error of the synergy score is computed based on the variation in the growth rates among the animals. […] If the P-value is above 0.05, then the combination is considered to be additive. If the P-value is below 0.05, and the synergy score is less than zero, then the combination is considered to be synergistic. […] Otherwise, the combination is classified as antagonistic.

[2] = system: Karpas-299 tumor cells (CD30+ human large T cell lymphoma cell line); experiment: Karpas-299 subcutaneous xenograft tumor efficacy model in CB17 SCID mice; details: for Average tumor volume day 14: in mm³ (unit assumed)
Description: as §1, with “Karpas-299 (0.5×10^6)” for “SR-786 (6.0×10^6)”, “Rive” for “River”, “Karpas-299” for “SR-786”
as §2, §3, §4, §5, §6, §7

[3] = system: SUDHL-2 tumor cells (CD30+ human large cell lymphoma cell line); experiment: SUDHL-2 subcutaneous xenograft tumor efficacy model in CB17-SCID mice; details: for Average tumor volume day 24: in mm³ (unit assumed)
Description: SUDHL-2 (2×10^6) tumor cells in RPMI-1640 media were aseptically injected into the subcutaneous space in the right dorsal flank of CB17-SCID female mice (Shanghai SLAC Laboratory Animal Co., LTD). SUDHL-2 is a CD30+ human large cell lymphoma cell line and was obtained from ATCC (Manassas, Va.).
as §2, §3, §4, §5, §6, §7

[4] = SGN-35 0.2 mg/kg IP, compared to the control vehicle group
[5] = SGN-35 0.4 mg/kg IP, compared to the control vehicle group
[6] = SGN-35 0.8 mg/kg IP, compared to the control vehicle group
[7] = compound of formula (IV) 2 mg/kg BIW IV
[8] = compound of formula (IV) 2 mg/kg IV
[9] = compound of formula (IV) 8 mg/kg BIW IV
[10] = compound of formula (IV) 8 mg/kg IV

Compound: SGN-35
- tumor growth inhibition ([1]; SGN-35 0.2 mg/kg IP): 3%
- Average tumor volume day 21 ([1]; SGN-35 0.2 mg/kg Q4D IP): 1330
- tumor growth inhibition ([1]; SGN-35 0.4 mg/kg IP): 70%
- Average tumor volume day 21 ([1]; SGN-35 0.4 mg/kg Q4D IP): 409.9
- tumor growth inhibition ([1]; SGN-35 0.8 mg/kg IP): 100%
- Average tumor volume day 21 ([1]; SGN-35 0.8 mg/kg Q4D IP): 0
- tumors found in mice on day 76 ([1]; SGN-35 0.8 mg/kg single agent): No tumors were found in any mice
- mice tumor free on day 21 post treatment ([1]; SGN-35 0.8 mg/kg single agent (Group 6)): 7/7
- tumor growth inhibition [2, 4]: 52%
- Average tumor volume day 14 ([2]; SGN-35 0.2 mg/kg Q4D IP): 647.4
- day on which group was sacrificed ([2]; SGN-35 0.2 mg/kg single agent): 25 days
- tumor growth inhibition [2, 5]: 100%
- Average tumor volume day 14 ([2]; SGN-35 0.4 mg/kg Q4D IP): 0
- mice tumor free at day 14 ([2]; SGN-35 0.4 mg/kg single agent): All the mice
- tumor growth inhibition [2, 6]: 100%
- Average tumor volume day 14 ([2]; SGN-35 0.8 mg/kg Q4D IP): 0
- mice tumor free at day 14 ([2]; SGN-35 0.8 mg/kg single agent): All the mice
- day on which group was sacrificed ([3]; SGN-35 0.2 mg/kg (Group 4)): 27 days
- tumor growth inhibition [3, 4]: 12%
- Average tumor volume day 24 ([3]; SGN-35 0.2 mg/kg Q4D IP): 1352.3
- day on which group was sacrificed ([3]; SGN-35 0.4 mg/kg (Group 5)): 45 days
- tumor growth inhibition [3, 5]: 50%
- Average tumor volume day 24 ([3]; SGN-35 0.4 mg/kg Q4D IP): 774.2
- day on which group was sacrificed ([3]; SGN-35 0.8 mg/kg (Group 6)): 59 days
- tumor growth inhibition [3, 6]: 82%
- Average tumor volume day 24 ([3]; SGN-35 0.8 mg/kg Q4D IP): 274.9

Compound: CC(C)C[C@H](NC(=O)CNC(=O)c1cc(Cl)ccc1Cl)B(O)O [compound of formula (IV), [(1R)-1-({[(2,5-dichlorobenzoyl)amino]acetyl}amino)-3-methylbutyl]boronic acid]
- Average tumor volume day 21 [1, 7]: 1221.5
- tumor growth inhibition [1, 8]: 10%
- Average tumor volume day 21 [1, 9]: 500.6
- tumor growth inhibition [1, 10]: 63%
- Average tumor volume day 14 [2, 7]: 1600
- tumor growth inhibition [2, 8]: −16%
- Average tumor volume day 14 [2, 9]: 1971.5
- tumor growth inhibition [2, 10]: −43%
- day on which group was sacrificed due to high tumor burden ([2]; compound of formula (IV) single agent groups (2 mg/kg and 8 mg/kg)): 14 days
- Average tumor volume day 24 [3, 7]: 1449.3
- tumor growth inhibition [3, 8]: 6%
- Average tumor volume day 24 [3, 9]: 1129.5
- tumor growth inhibition [3, 10]: 26%
- day on which group was sacrificed ([3]; two compound of formula (IV) treated groups (Group 2 and 3; 2 mg/kg and 8 mg/kg)): 27 days
